Measurements published in patent publication US20080299599A1, “FLUORESCENT PROTEINS FOR MONITORING INTRACELLULAR SUPEROXIDE PRODUCTION” (priority 2006, published 2008).
Where two headings read alike, the source gives them in different places.

Legend:
[1] = tested on: rat PC12 pheochromocytoma cells; assay type: cell-based; conditions: for occurrence of superoxide flashes: ρ− PC12 cells; for incidence of superoxide flashes: ethidium bromide 200 ng/ml for 60 days, PC12 cells
Source text: (§1) Enzymatically isolated rat ventricular myocytes and hippocampal neurons in primary culture were infected with adenovirus carrying the mt-cpYFP gene or its mutants at an m.o.i. of 1:100 and cultured for 2 to 3 days (Zhou et al., Am. J. Physiol. Heart Circ. Physiol., 279; H429-H436, 2000). Similar conditions were used when expressing mt-cpYFP in other cell types. To obtain spatially and temporally resolved fluorescent images of mt-cpYFP, a Zeiss LSM 510 confocal microscope equipped with a 63×, 1.3NA oil immersion objective and a sampling rate of 0.7 s/frame was used. Dual wavelength excitation imaging of mt-cpYFP was achieved by alternating excitation at 405 and 488 nm and collecting emission at >505 nm. Tri-wavelength excitation imaging of mt-cpYFP and TMRM (20 nM) or rhod-2 was achieved by tandem excitation at 405, 488, and 543 nm, and the emission was collected at 515-550, 515-550 and >560 nm, respectively. To increase mitochondrion retention of rhod-2, the indicator loading protocol described by Hajnoczky C et al. was used with modification (Hajnoczky et al., Cell, 82: 415-424, 2000). Briefly, cells were loaded with 4 μM rhod-2 AM (after NaBH4 quenching) at 4° C. for 1 hr, and then changed to normal culture medium for 4 hrs. The standard extracellular perfusion solution contained (in mM): NaCl 137, KCl 4.9, CaCl21, MgSO4 1.2, NaH2PO4 1.2, glucose 15, and HEPES 20 (pH 7.4). Digital image processing was performed using IDL software (Research Systems) and customer-devised programs.
(§2) ρ° 143B TK human osteosarcoma cells and its wild type control were a generous gift from Dr. Nadja C. de Souza-Pinto (National Institute on Aging, NIH). Wild type and ρ° 143B cells were cultured under identical conditions, in DMEM medium supplemented with 10% FBS, 100 μg/ml pyruvate, 100 μg/ml bromodeoxyuridine and 50 μg/ml uridine17. Mitochondria of ρ° 143B cells completely lack mitochondrial respiration, due to the loss of critical ETC proteins including constituents of complex I (ND1-6, ND4L), complex III (cytochrome b) and complex IV (COX I-III) encoded by mitochondrial DNA. To partially deplete mitochondrial DNA and allow partial disruption of mitochondrial respiration, PC12 pheochromocytoma cells were cultured in DMEM medium with 10% FBS, 200 ng/ml ethidium bromide, 100 μg/ml pyruvate and 50 μg/ml uridine for up to 60 days. Depletion of mitochondrial DNA was evidenced by western blot analysis of cytochrome C oxidase subunit I.

[2] = tested on: superoxide flashes in rat cardiac myocytes; experiment: Confocal imaging of superoxide flashes in cardiac myocytes expressing mt-cpYFP; assay type: cell-based; conditions: for occurrence of superoxide flashes: cardiac myocytes
Procedure: Similar conditions were used when expressing mt-cpYFP in other cell types. […] Briefly, cells were loaded with 4 μM rhod-2 AM (after NaBH4 quenching) at 4° C. for 1 hr, and then changed to normal culture medium for 4 hrs. […] Digital image processing was performed using IDL software (Research Systems) and customer-devised programs.

[3] = tested on: ρ° 143B TK-human osteosarcoma cells; experiment: Superoxide flashes in mitochondrial DNA-deleted ρ° 143B cells; assay type: cell-based; conditions: atractyloside 20 μM
Source text: as §1, with “Digital image processing was performed using IDL software (Research Systems) and customer-devised programs.” left out

[4] = tested on: superoxide flashes in cardiac myocytes; experiment: Superoxide flashes in cardiac myocytes during hypoxia and reoxygenation; assay type: cell-based, rat; conditions: diazoxide 30 μM added 20 min prior to hypoxia
Source text: as §1, with “Digital image processing was performed using IDL software (Research Systems) and customer-devised programs.” left out

[5] = tested on: cytochrome C oxidase subunit I (COX-1); experiment: Western blot of cytochrome C oxidase subunit I in ethidium bromide-treated PC12 cells; assay type: cell-based, rat; conditions: ethidium bromide 200 ng/ml for 60 days
Procedure: as §2

cellular ROS production = conditions: previous finding, Aon et al. 2003; cited from earlier work
[6] = Spectral analysis of purified cpYFP: in vitro redox calibration and response to ROS and metabolites; assay type: biochemical
Procedure: cpYFP cDNA (807 bp) was cloned into a prokaryotic expression vector (pRSET) and transferred into E. Coli cell line (BL21(DE3)LysS) for large-scale protein expression. In vitro redox calibration of cpYFP fluorescence was carried out using methods described previously (Hanson et al., J. Biol. Chem., 279: 13044-13053, 2004). Briefly, under an inert environment, purified cpYFP protein (1 μM) was incubated with either 10 mM reduced DTT or 1 mM aldrithiol for at least 3 hours, allowing for solution equilibration. Reduced DTT was removed from the solution allowing measurement of cpYFP response to various ROS and metabolites. The calibration solution contained (in mM): HEPES 75, KCl 125, and EDTA 1, pH=8.0. Emission and excitation spectra of reduced and oxidized cpYFP in the presence of designated reagents were obtained with a spectrofluorimeter (Model: CM1T101, HORIBA Jobin Yvon, Inc.) filled with nitrogen gas.
Using cpYFP purified from an E. coli expression system, excitation and emission fluorescence spectra were measured in response to reducing (10 mM reduced DTT) and oxidizing manipulations (1 mM aldrithiol). […] Extensive in vitro experiments were performed to determine the selectivity of cpYFP among physiologically relevant oxidants and metabolites. […] The cpYFP signal, however, was insensitive to hydrogen peroxide (H2O2) over a wide range of concentrations (0.1-10 mM) (FIG. 1c) and peroxynitrite (FIG. 2), and was decreased by hydroxyl radicals (.OH) (FIG. 1c) and nitric oxide (FIG. 2).

## C=C(C)[C@H]1Cc2c(ccc3c2O[C@@H]2COc4cc(OC)c(OC)cc4[C@@H]2C3=O)O1 [Rotenone]
[1]; rotenone 5 μM
  occurrence of superoxide flashes: virtually abolished
[2]; rotenone 5 μM
  occurrence of superoxide flashes: virtually abolished

## C=C1[C@@H]2CC[C@H]3[C@]4(C)C[C@H](O[C@@H]5O[C@H](CO)[C@@H](OS(=O)(=O)O)[C@H](OS(=O)(=O)O)[C@H]5OC(=O)CC(C)C)C[C@@H](C(=O)O)[C@H]4CC[C@]3(C2)[C@H]1O [atractyloside]
[3]
  rescue of superoxide flashes in ρ° cells: cannot be rescued
[2]; atractyloside 20 μM
  effect on superoxide flash frequency: significantly augment superoxide flash frequency

## CO[C@H](C/C=C\C=C\CC/C=C/C[C@H](C)/C=C/C(=C\C(=O)O)CC(=O)O)/C(C)=C\C=C(/C)C(=O)O [bongkrekic acid]
[2]; bongkrekic acid 100 μM
  effect on superoxide flash amplitude: reducing their amplitude
  effect on superoxide flash kinetics: abbreviating their kinetics
  incidence of superoxide flashes: 33 % of control

## CC1=NS(=O)(=O)c2cc(Cl)ccc2N1 [diazoxide]
[4]
  effect on rebound flurry of superoxide flash activity after reoxygenation: effectively protected the cells from the rebound flurry of superoxide flash activity

## CC[n+]1c(-c2ccccc2)c2cc(N)ccc2c2ccc(N)cc21 [ethidium bromide]
[1]
  incidence of superoxide flashes: 60 % of control
[1]; wild type 63±6
  incidence of superoxide flashes: 23±3 events per 1000 μm2 cell area per 100 s
[5]
  cytochrome C oxidase subunit I (COX-1) expression: 70 % of control

## O=S(=O)(O)c1cc(O)c(O)c(S(=O)(=O)O)c1 [tiron]
[2]; tiron 1 mM
  effect on frequency and amplitude of flashes: similarly diminished the frequency and amplitude of flashes

## C160A/C182A: SEQ ID NO. 1 with both cysteines C160 and C182 substituted to alanine
[2]; residue numbering of SEQ ID NO. 1
  response of the probe to superoxide after cysteine substitution: completely abolishes the response of the probe to superoxide

## MnTMPyP
[2]; MnTMPyP 50 μM
  inhibition of flash activity: 83%
[2]; MnTMPyP 50 μM, n=12, p<0.01 vs control
  flash amplitude (ΔF/F0): 0.18±0.02

## antimycin A
[1]; antimycin A 5 μg/ml
  occurrence of superoxide flashes: virtually abolished
Cellular ROS production
  effect on cellular ROS production measured with DCF: increases cellular ROS production
[2]; antimycin A 5 μg/ml
  occurrence of superoxide flashes: virtually abolished

## cpYFP: circularly permuted yellow fluorescent protein; superoxide probe of SEQ ID NO. 1, pericam without calmodulin and M13 domains
[6]; 1 mM aldrithiol vs 10 mM reduced DTT, excited at 488 nm
  brightness of oxidized cpYFP versus fully reduced species: about five times brighter
[6]; ATP, ADP, NAD(P)+, NAD(P)H and Ca2+ at physiological concentrations
  cpYFP signal response to other metabolites: negligible or only marginal effects
[6]; Fenton reaction, 1 mM H2O2 plus 0.1 mM FeSO4, anaerobic
  cpYFP signal response to hydroxyl radicals: decreased
[6]; H2O2 0.1-10 mM
  cpYFP signal response to hydrogen peroxide: insensitive
[6]; SIN-1 1 mM in aerobic solution
  cpYFP signal response to peroxynitrite: insensitive
[6]; SIN-1 1 mM in anaerobic solution
  cpYFP signal response to nitric oxide: decreased
[6]; basic environments, e.g. mitochondrial matrix pH 8.0
  cpYFP brightness dependence on pH: brighter in basic environments
[6]; xanthine/xanthine oxidase (2 mM/20 mU), aerobic, compared to fully reduced state
  increase of cpYFP fluorescence in response to O2.−: 420%
